For test [1], the system named is FGF2/FGFR3-mediated growth-arrest of rat chondrosarcoma (RCS) cells.
From the text: In this assay, the FGF2/FGFR3-mediated growth-arrest of rat chondrosarcoma (RCS) cells is used as a reporter, thus allowing for elimination of toxic compounds as false-positive hits (Krejci, et al., Invest New Drugs 2007, 25: 391-395).
Rat chondrosarcoma chondrocytes (RCS), chinese hamster ovary (CHO) cells and MM cell lines OPM2 and KMS11 were propagated in DMEM, Opti-MEM or RPMI media (Gibco, Gaitherbsburg, Md.), supplemented with 10% fetal bovine serum (Atlanta Biological, Nordeross, Ga.) and antibiotics. […] For the RCS growth-arrest experiments shown at FIGS. 1 and 4c, 1×10^4 RCS chondrocytes were seeded in 24-well tissue culture plates (Costar, Cambridge, Mass.), treated as indicated for 72 hours, and counted. FGF2 was obtained from R&D Systems (Minneapolis, Minn.); C-natriuretic peptide, suramin, NF023 and NF449 were from Calbiochem (San Diego, Calif.).
Test [2] deals with T1, recombinant tyrosine kinase (TK) domain of FGFR3 (Homo sapiens, UniProt P22607).
T1 construct: recombinant tyrosine kinase (TK) domain of FGFR3 (Glu-322-Thr-806; Cell Signaling); purchased Cell Signaling
The test can be described thus: Cell-free FGFR3 kinase assay with STAT1 as substrate. The test is classed as biochemical. The note with it: added directly to the kinase reaction; FIG. 4. As for the experimental part:
FIG. 4, in accordance with an embodiment herein, depicts 4,4′,4″,4′″-[carbonyl-bis[imino-5,1,3-benzenetriyl bis-{carbonylimino}]]tetrakis-{benzene-1,3-disulfonic acid} inhibits FGFR3 activity in a kinase assay. (a, b) Cell-free kinase assays were carried out as described herein, with recombinant tyrosine kinase (TK) domain of FGFR3 as a kinase, recombinant STAT1 as a substrate, and NF449 added directly to the kinase reaction. FGFR3-mediated phosphorylation of STAT1 was detected by WB with P-STAT1 (Y^701) antibody. The membrane was reprobed with FGFR3 and STAT1 antibodies to control for kinase and substrate quantity. The sample with ATP omitted serves as a negative control for the kinase reaction. Note the FGFR3-mediated phosphorylation of STAT1 is inhibited by 4,4′,4″,4′″-[carbonyl-bis[imino-5,1,3-benzenetriyl bis-{carbonylimino}]]tetrakis-{benzene-1,3-disulfonic acid}. The P-STAT1 and STAT1 signal was quantified by densitometry and expressed as a ratio between P-STAT1 and STAT1 signal for each given sample (b, lower graph). (c) The FGFR3 kinase assay was carried-out as described in (a) with 4,4′,4″,4′″-[carbonyl-bis[imino-5,1,3-benzenetriyl bis-{carbonylimino}]]tetrakis-{benzene-1,3-disulfonic acid}, 8,8′-[carbonylbis[imino-3,1-phenylenecarbonylimino{4-methyl-3,1-phenylene}carbonylimino]]bis-1,3,5-naphthalenetrisulfonic acid or 8,8′-[carbonylbis[imino-3,1-phenylene]]bis-{1,3,5-naphthalenetrisulfonic acid} added to the kinase reaction. Note the differential effects of 8,8′-[carbonylbis[imino-3,1-phenylenecarbonylimino{4-methyl-3,1-phenylene}carbonylimino]]bis-1,3,5-naphthalenetrisulfonic acid and 8,8′-[carbonylbis[imino-3,1-phenylene]]Bis-{1,3,5-naphthalenetrisulfonic acid} on the FGFR3-mediated phosphorylation of STAT1, which corresponds to their activity in the RCS growth-arrest experiment (lower graph). Data are an average from four wells with the indicated standard deviation. Statistically significant rescue of the growth arrest is indicated (Student's I-test; *-p<0.01).
OPM2 and KMS11 cells were lysed in ice-cold immunoprecipitation buffer (50 mM Tris-HCl pH 7.4, 150 mM NaCl, 0.5% NP-40, 1 mM EDTA, 25 mM NaF) supplemented with proteinase inhibitors and 10 mM sodium orthovanadate. Protein samples were resolved by SDS-PAGE and transferred onto a PVDF membrane. The following antibodies were used: Erk1/2, P-Erk1/2^T202/Y204, STAT1, P-STAT1^Y701 (Cell Signaling, Beverly, Mass.) and FGFR3 (Santa Cruz Biotechnology, Santa Cruz, Calif.). Western blotting signal was quantified by determining the integrated optical density (I.O.D.) of a given band using Scion Image software (Scion Corporation, Frederick, Mass.). Immunoprecipitations and FGFR3 kinase assays were performed as described. Briefly, the pRK7 vector encoding C-terminally FLAG-tagged K650E-FGFR3 was transfected into CHO cells using FuGENE6 reagent according to the manufacturer's protocol (Roche Applied Science, Indianapolis, Ind.). 48 hours after transfection, cells were treated with 20 ng/ml of FGF2 for 15 minutes and K650E-FGFR3 was immunoprecipitated from 800 μg of cell lysate protein using 4 μg of anti-FLAG antibody (Sigma-Aldrich, St. Louis, Mo.). Cells transfected with a plasmid encoding green fluorescent protein (pCCEY) serve as a negative control for the immunoprecipitation. Immunocomplexes were washed two times with kinase buffer (60 mM HEPES-NaOH pH 7.5, 3 mM MgCl2, 3 mM MnCl2, 3 μM Na3VO4, 1.2 mM dithiothreitol), and the kinase reactions were performed for 30 minutes at 30° C. in the presence of 2.5 μg of polyethylene glycol, 10 μM ATP, 300 ng of recombinant STAT1 (Active Motif, Carlsbad, Calif.) as a substrate, and NF449 added directly to the kinase reaction. Kinase assays utilizing recombinant tyrosine kinase (TK) domain of FGFR3 (Glu-322-Thr-806; Cell Signaling) were carried-out similarly, with 300 ng of kinase used in 50 μl reaction, and suramin, NF449 and NF023 added directly to the kinase reaction. […]

The test system of test [3] is FGF2/FGFR3-mediated growth-arrest of rat chondrosarcoma (RCS) cells. The settings on record: previous work [9, 12]; cited from earlier work.
Test [4] has as its target T1, recombinant tyrosine kinase (TK) domain of FGFR3. The settings on record: previous work [9, 12]; cited from earlier work.

Here are results for 3 molecules from patent US20110166223A1, “METHODS OF INHIBITING FGFR3 SIGNALING” (CEDARS-SINAI MEDICAL CENTER, priority 2008, published 2011).

T1 sequence (P22607 322-806): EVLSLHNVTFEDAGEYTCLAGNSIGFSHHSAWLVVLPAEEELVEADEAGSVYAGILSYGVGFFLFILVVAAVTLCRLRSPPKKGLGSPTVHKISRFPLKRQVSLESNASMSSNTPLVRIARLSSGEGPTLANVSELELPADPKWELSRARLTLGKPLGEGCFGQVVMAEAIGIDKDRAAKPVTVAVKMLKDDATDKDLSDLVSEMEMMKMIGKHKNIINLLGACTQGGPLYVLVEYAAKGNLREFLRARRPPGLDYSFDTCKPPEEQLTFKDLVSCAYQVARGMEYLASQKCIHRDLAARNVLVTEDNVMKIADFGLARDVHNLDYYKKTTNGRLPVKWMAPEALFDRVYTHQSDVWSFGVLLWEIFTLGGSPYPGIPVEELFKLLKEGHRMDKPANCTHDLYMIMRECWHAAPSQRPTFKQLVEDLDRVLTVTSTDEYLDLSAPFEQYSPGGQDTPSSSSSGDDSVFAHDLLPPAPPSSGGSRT

Consider “C-natriuretic peptide [CNP, reference compound]”, for which the “rescue of the FGF2-mediated RCS growth-arrest” value in test [1] (FIG. 1b, each agent alone, 72 hours) is around 23%.

`Cc1ccc(C(=O)Nc2ccc(S(=O)(=O)O)c3cc(S(=O)(=O)O)cc(S(=O)(=O)O)c23)cc1NC(=O)c1cccc(NC(=O)Nc2cccc(C(=O)Nc3cc(C(=O)Nc4ccc(S(=O)(=O)O)c5cc(S(=O)(=O)O)cc(S(=O)(=O)O)c45)ccc3C)c2)c1` [suramin, 8,8′-[carbonylbis[imino-3,1-phenylenecarbonylimino{4-methyl-3,1-phenylene}carbonylimino]]bis-1,3,5-naphthalenetrisulfonic acid, reference compound]: in test [2], the “effect on FGFR3 kinase activity (in words)” value is on record as “inhibited FGFR3 kinase activity”. Besides, the “effect on FGF2/FGFR3-mediated growth arrest (in words)” value in test [1] (RCS chondrocytes, FIGS. 1, 4c) is “reversed the FGF2/FGFR3-mediated growth arrest”.

For `Cc1c[nH]c(/C=C2\C(=O)Nc3ccccc32)c1CCC(=O)O` [SU5402], the “concentration range inhibiting RCS growth arrest” value in test [3] is 2 to 20 µM. The “concentration range inhibiting FGFR3 kinase activity” value in test [4] was 2 to 20 µM.
